Where a chain is given by its changes, count along the chain named. pKi: −log10 of the molar value. Where no end group is shown, it is not given here.
Columns and labels:
Experiment in all cases: Homologous whole cell competition binding
Details in all cases: homologous competition of 125I-sCT(8-32), whole cells, mean ± S.E.M., SEM
hCTR T280A = target: T1, hCTR T280A (Homo sapiens, UniProt P30988, T280A)
T1 construct: expressed in transfected cells
T1 sequence (P30988 25-474 T280A): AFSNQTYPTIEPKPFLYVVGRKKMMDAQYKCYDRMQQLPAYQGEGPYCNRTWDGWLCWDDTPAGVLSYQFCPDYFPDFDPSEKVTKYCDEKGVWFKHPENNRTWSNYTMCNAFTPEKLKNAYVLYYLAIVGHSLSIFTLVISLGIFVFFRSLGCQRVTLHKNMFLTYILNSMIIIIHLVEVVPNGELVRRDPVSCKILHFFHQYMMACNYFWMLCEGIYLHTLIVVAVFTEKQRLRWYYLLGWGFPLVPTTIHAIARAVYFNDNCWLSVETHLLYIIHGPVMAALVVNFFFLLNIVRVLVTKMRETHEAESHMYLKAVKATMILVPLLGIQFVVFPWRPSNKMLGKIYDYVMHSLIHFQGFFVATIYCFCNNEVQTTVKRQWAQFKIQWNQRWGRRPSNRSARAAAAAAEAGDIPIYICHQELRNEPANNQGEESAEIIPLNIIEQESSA
In short: (§1)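 Homologous competition, intact cells, 4 °C overnight; tracer ^125I-sCT(8-32) 25–100 pM (two concs) vs cold sCT(8-32); NSB 1 μM cold peptide; γ counter; 3-param logistic IC50 → Cheng-Prusoff pKi; Bmax also estimated.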

hCTR WT = target: T2, hCTR WT (Homo sapiens, UniProt P30988)
T2 construct: expressed in transfected cells
T2 sequence (P30988 25-474): T1 sequence (P30988 25-474 T280A) with A256T
In short: as §1

hCTR Y284A = target: T3, hCTR Y284A (Homo sapiens, UniProt P30988, Y284A)
T3 construct: expressed in transfected cells
T3 sequence (P30988 25-474 Y284A): T1 sequence (P30988 25-474 T280A) with A256T, Y260A
In short: as §1

hCTR Y374A = target: T4, hCTR Y374A (Homo sapiens, UniProt P30988, Y374A)
T4 construct: c-Myc (N); expressed in transfected cells
T4 sequence (P30988 25-474 Y374A): T1 sequence (P30988 25-474 T280A) with A256T, Y350A
In short: as §1

pKi (hCTR T280A): 9.61
pKi (hCTR WT): 9.70
pKi (hCTR Y284A): 9.85
pKi (hCTR Y374A): 9.83
Substance: VLGKLSQELHKLQTYPRTNTGSGTP-NH2 [sCT(8-32)]

From paper PMC5908784, “Extracellular loops 2 and 3 of the calcitonin receptor selectively modify agonist binding and efficacy” (Biochemical Pharmacology, 2018)
